# Test results as given in PMC4004252 (Journal of the American Chemical Society, 2014).
# Tests used:
# Top1 [1] = biological target: T1, Top1 (Homo sapiens, UniProt P11387); format: biochemical
# T1 sequence (P11387 1-765): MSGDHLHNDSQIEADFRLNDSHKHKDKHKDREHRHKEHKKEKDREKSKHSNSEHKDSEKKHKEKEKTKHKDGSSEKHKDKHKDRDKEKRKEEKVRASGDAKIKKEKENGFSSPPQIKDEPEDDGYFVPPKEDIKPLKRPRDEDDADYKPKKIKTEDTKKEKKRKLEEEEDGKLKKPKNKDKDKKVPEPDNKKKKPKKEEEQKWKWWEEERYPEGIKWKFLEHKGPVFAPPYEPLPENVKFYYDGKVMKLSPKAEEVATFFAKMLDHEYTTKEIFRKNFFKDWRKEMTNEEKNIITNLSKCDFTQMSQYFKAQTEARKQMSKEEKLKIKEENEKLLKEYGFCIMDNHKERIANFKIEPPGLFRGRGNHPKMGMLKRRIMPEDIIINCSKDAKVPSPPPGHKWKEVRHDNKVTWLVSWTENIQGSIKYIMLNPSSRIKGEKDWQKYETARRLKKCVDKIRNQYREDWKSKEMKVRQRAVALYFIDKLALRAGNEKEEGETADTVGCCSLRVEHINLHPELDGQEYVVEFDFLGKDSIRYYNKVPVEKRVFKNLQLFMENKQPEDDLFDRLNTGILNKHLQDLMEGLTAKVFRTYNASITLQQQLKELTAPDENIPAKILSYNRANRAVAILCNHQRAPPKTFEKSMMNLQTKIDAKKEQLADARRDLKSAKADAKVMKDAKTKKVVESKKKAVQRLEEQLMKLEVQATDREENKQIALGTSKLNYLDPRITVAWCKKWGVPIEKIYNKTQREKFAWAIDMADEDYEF
# [2] = system: relaxed pHOT1 plasmid DNA; assay: DNA unwinding assay, relaxed pHOT1 as substrate; format: biochemical; conditions: 10 units Top1, 37 °C
# Top1 [3] = biological target: T1, Top1; assay: Standard Top1 scDNA relaxation assay; format: biochemical
# ctDNA = ctDNA absorption spectroscopy titration of ethidium bromide; format: binding, calf; conditions: value for EB in main text
compound,measurement,setting,value
"O=C1c2c(O)ccc(O)c2C(=O)c2c(NCCNCCO)ccc(NCCNCCO)c21 [MTX, mitoxantrone]",dose at which switch to catalytic inhibition of Top1 occurs,Top1 [1],1 to 10 µM
same,PicoGreen relative fluorescence readout,Top1 [1]; doses of 0.1 and 1 μM,positive
"COc1cc(NS(C)(=O)=O)ccc1Nc1c2ccccc2nc2ccccc12 [m-AMSA, 4′-(9-acridinylamino)methanesulfon-m-anisidide]",concentration giving the Gaussian distribution of DNA topoisomers,[2],50 µM
same,dose giving complete inhibition of the enzyme,Top1 [3],50 µM
"CC[n+]1c(-c2ccccc2)c2cc(N)ccc2c2ccc(N)cc21 [EB, ethidium bromide]","KA, ctDNA affinity constant",ctDNA,5(1) × 10^6 M^–1 bp
